The values below come from patent US7423054B2, “Therapeutic pyrazolo[3,4-b]pyridines and indazoles” (Warner Lambert Company LLC, priority 2004, dated 2008).

As a reminder, the Ki is a dissociation constant, usually derived from enzyme kinetics or from competition with a known ligand.

In assay [1] the target is T1, human norepinephrine transporter (hNET) (Homo sapiens, UniProt P23975).
T1 construct: expressed in transfected cells; host or cells: HEK-293 cells (membrane preparation)
The assay is described as follows: hNET receptor binding ([125I]-RTI-55 displacement, membranes of transfected HEK-293 cells). Particulars: HEK-293 membranes, Ki from IC50 by Cheng-Prusoff, read-out: NET Ki. The source says:
(§1) The ability of the compounds of the present invention to inhibit a norepinephrine transporter and/or a serotonin transporter can be determined using conventional radioligand receptor transport assays. The receptors can be heterologously expressed in cell lines and experiments conducted in membrane preparations from the cell lines that express a norepinephrine transporter and/or a serotonin transporter.
Cell pastes of HEK-293 cells transfected with a human norepinephrine transporter cDNA were prepared. The cell pastes were resuspended in 400 to 700 ml of Krebs-HEPES assay buffer (25 mM HEPES, 122 mM NaCl, 3 mM KCl, 1.2 mM MgSO4, 1.3 mM CaCl2, and 11 mM glucose, pH 7.4) with a Polytron homogenizer at setting 7 for 30 seconds. Aliquots of membranes (5 mg/ml protein) were stored in liquid nitrogen until used.
The binding assay was set up in Beckman deep-well polypropylene plates with a total volume of 250 μl containing: test compound (10^−5M to 10^−12M), cell membranes, and 50 pM [^125I]-RTI-55 (Perkin Elmer, NEX-272; specific activity 2200 Ci/mmol). The reaction was incubated by gentle agitation for 90 minutes at room temperature and was terminated by filtration through Whatman GF/C filter plates using a Brandel 96-well plate harvester. Scintillation fluid (100 μl) was added to each well, and bound [^125I]-RTI-55 was determined using a Wallac Trilux Beta Plate Counter. Test compounds were run in duplicate, and specific binding was defined as the difference between binding in the presence and absence of 10 μM desipramine.
Excel and GraphPad Prism software were used for data calculation and analysis. IC50 values were converted to Ki values using the Cheng-Prusoff equation. The Ki values (nM) for the hNET are reported below in Table 11.

The target in assay [2] is T2, human serotonin transporter (hSERT) (Homo sapiens, UniProt P31645).
T2 construct: expressed in transfected cells; host or cells: HEK-293 cells (membrane preparation)
T2 sequence (P31645 whole entry): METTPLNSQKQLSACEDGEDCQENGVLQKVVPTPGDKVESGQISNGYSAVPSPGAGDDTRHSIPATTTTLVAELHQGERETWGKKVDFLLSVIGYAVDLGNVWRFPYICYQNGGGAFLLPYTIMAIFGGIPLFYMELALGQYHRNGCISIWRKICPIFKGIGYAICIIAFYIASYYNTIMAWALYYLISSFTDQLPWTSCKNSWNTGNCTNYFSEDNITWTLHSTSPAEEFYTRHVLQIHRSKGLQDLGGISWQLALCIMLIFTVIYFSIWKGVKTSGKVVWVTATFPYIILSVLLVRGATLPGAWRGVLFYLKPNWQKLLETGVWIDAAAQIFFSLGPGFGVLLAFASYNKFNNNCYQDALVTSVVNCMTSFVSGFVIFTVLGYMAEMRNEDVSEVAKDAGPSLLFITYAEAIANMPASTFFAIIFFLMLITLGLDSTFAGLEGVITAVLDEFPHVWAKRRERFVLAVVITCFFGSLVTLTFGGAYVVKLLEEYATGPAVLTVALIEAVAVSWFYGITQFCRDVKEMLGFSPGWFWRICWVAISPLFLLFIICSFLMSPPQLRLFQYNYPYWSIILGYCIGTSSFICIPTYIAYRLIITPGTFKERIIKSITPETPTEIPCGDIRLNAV
Briefly: hSERT receptor binding ([125I]-RTI-55 displacement, membranes of transfected HEK-293 cells). Particulars: HEK-293 membranes, Ki from IC50 by Cheng-Prusoff, read-out: SERT Ki. The protocol:
as §1
Cell pastes of HEK-293 cells transfected with a human serotonin transporter cDNA were prepared. The cell pastes were resuspended in 400 to 700 ml of Krebs-HEPES assay buffer (25 mM HEPES, 122 mM NaCl, 3 mM KCl, 1.2 mM MgSO4, 1.3 mM CaCl2, and 11 mM glucose, pH 7.4) with a Polytron homogenizer at Setting 7 for 30 seconds. Aliquots of membranes (˜2.5 mg/ml protein) were stored in liquid nitrogen until used.
Assays were set up in FlashPlates pre-coated with 0.1% PEI in a total volume of 250 μl containing: test compound (10^−5M to 10^−12M), cell membranes, and 50 pM [^125I]-RTI-55 (Perkin Elmer, NEX-272; specific activity 2200 Ci/mmol). The reaction was incubated and gently agitated for 90 minutes at room temperature, and terminated by removal of assay volume. Plates were covered, and bound [^125I]-RTI-55 was determined using a Wallac Trilux Beta Plate Counter. Test compounds were run in duplicate, and specific binding was defined as the difference between binding in the presence and absence of 10 μM citalopram.
Excel and GraphPad Prism software were used for data calculation and analysis. IC50 values were converted to Ki values using the Cheng-Prusoff equation. The Ki values (nM) for the hSERT are reported below in Table 11: […]

Structures can show the parent of a compound that is named as a salt.

T1 sequence (P23975 whole entry): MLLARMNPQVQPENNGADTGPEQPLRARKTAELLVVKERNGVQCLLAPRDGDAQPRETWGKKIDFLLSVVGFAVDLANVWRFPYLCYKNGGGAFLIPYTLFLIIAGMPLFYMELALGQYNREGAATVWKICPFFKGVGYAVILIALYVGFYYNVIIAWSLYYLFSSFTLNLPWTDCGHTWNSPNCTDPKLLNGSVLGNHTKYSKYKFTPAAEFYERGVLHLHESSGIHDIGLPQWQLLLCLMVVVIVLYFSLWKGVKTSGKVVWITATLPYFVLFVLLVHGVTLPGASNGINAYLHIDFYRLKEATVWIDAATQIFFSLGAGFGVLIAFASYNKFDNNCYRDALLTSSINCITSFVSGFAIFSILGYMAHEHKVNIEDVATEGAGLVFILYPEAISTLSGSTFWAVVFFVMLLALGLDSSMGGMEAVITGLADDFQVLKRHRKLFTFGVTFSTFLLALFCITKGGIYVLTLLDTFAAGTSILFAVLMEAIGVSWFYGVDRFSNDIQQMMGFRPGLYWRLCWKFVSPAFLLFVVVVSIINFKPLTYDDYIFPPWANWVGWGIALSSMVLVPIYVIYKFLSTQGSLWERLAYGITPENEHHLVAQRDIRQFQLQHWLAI

As to `c1ccc(-n2nc(OC3CCCNC3)c3ccccc32)cc1` (racemic) [Example 15, (±)-1-Phenyl-3-(piperidin-3-yloxy)-1H-indazole hydrochloride], the Ki was found to be 0.329 µM in assay [1] and 1.46 µM in assay [2].
In the case of `c1ccc(-n2nc(OCC3CCCNC3)c3ccccc32)cc1` (racemic) [Example 16, (±)-1-Phenyl-3-(piperidin-3-ylmethoxy)-1H-indazole hydrochloride], the Ki in assay [1] was 0.0215 µM; in assay [2] it was 0.224 µM.
On to `c1ccc(-n2nc(OCC3CCNCC3)c3ccccc32)cc1` (racemic) [Example 17, (±)-1-Phenyl-3-(piperidin-4-ylmethoxy)-1H-indazole hydrochloride], for which the Ki in assay [1] was 0.151 µM; in assay [2], 0.028 µM.
For the compound `Fc1cccc(-n2nc(OCC3CCCNC3)c3ccccc32)c1` (racemic) [Example 66, (±)-1-(3-Fluoro-phenyl)-3-(piperidin-3-ylmethoxy)-1H-indazole hydrochloride], the inhibition constant Ki in assay [1] was found to be 0.0169 µM; in assay [2] it was 0.12 µM.
For the compound `Fc1ccc(-n2nc(OCC3CCCNC3)c3ccccc32)cc1` (racemic) [Example 67, (±)-1-(4-Fluoro-phenyl)-3-(piperidin-3-ylmethoxy)-1H-indazole hydrochloride], the inhibition constant (Ki) came out at 0.0197 µM in assay [1] and 0.191 µM in assay [2].
Take `Clc1ccc(-n2nc(OCC3CCCNC3)c3ccccc32)cc1` (racemic) [Example 68, (±)-1-(4-Chloro-phenyl)-3-(piperidin-3-ylmethoxy)-1H-indazole hydrochloride]: the figures for the inhibition constant Ki in assay [1] and in assay [2] were 0.219 µM and 0.359 µM, respectively.
For `Clc1ccc2c(c1)c(OCC1CCCNC1)nn2-c1ccccc1` (racemic) [Example 69, (±)-5-Chloro-1-phenyl-3-(piperidin-3-ylmethoxy)-1H-indazol hydrochloride], the Ki in assay [1] amounted to 0.098 µM; in assay [2], 0.339 µM.
Turning to `Fc1ccc2c(OCC3CCCNC3)nn(-c3ccccc3F)c2c1` (racemic) [Example 70, (±)-6-Fluoro-1-(2-fluoro-phenyl)-3-(piperidin-3-ylmethoxy)-1H-indazole hydrochloride], the values for the Ki in assay [1] and in assay [2] were 0.0336 µM and 0.2 µM, respectively.
For `Fc1ccc2c(c1)c(OCC1CCCNC1)nn2-c1ccc(F)c(F)c1` (racemic) [Example 96, (±)-1-(3,4-Difluoro-phenyl)-5-fluoro-3-(piperidin-3-ylmethoxy)-1H-indazole hydrochloride], the Ki turned out to be 0.0495 µM in assay [1] and 0.172 µM in assay [2].
As to `Fc1ccccc1-n1nc(OC[C@@H]2CNCCO2)c2ccccc21` [Example 2, (S)-(+)-1-(2-Fluorophenyl)-3-(morpholin-2-ylmethoxy)-1H-indazole maleate], the inhibition constant Ki worked out at 0.00928 µM in assay [1] and 1.62 µM in assay [2].
Take `Fc1ccc(-n2nc(OC[C@@H]3CNCCO3)c3ccccc32)c(F)c1` [Example 3, (S)-(+)-1-(2,4-Difluorophenyl)-3-(morpholin-2-ylmethoxy)-1H-indazole maleate]: the Ki in assay [1] was 0.0034 µM; in assay [2], 0.832 µM.
Regarding `Fc1ccccc1-n1nc(OCC2CCCNC2)c2ccccc21` (stereo not drawn) [Example 4, 1-(2-Fluorophenyl)-3-(piperidin-3-ylmethoxy)-1H-indazole hydrochloride], the results for the Ki in assay [1] and in assay [2] were 0.003 µM and 0.27 µM, respectively.
As for `Fc1ccccc1-n1nc(OC[C@H]2CNCCO2)c2ccccc21` [Example 5, (R)-(−)-1-(2-Fluorophenyl)-3-(morpholin-2-ylmethoxy)-1H-indazole hydrochloride], the Ki in assay [1] was found to be 0.084 µM; in assay [2], 1.61 µM.
Consider `Fc1ccccc1-n1nc(OC[C@H]2CCCNC2)c2ccccc21` [Example 6, (S)-(−)-1-(2-Fluorophenyl)-3-(piperidin-3-ylmethoxy)-1H-indazole hydrochloride], for which the Ki in assay [1] amounted to 0.00165 µM; in assay [2], 0.192 µM.
With `Fc1ccc(-n2nc(OC3CCNCC3)c3ccccc32)c(F)c1` [Example 10, 1-(2,4-Difluoro-phenyl)-3-(piperidin-4-yloxy)-1H-indazole hydrochloride], the Ki in assay [1] is 0.0143 µM; in assay [2], 0.0361 µM.
